Experimental data from patent US20110172301A1, “Use of anti-oxidant compounds for muscle recovery” (DSM IP ASSETS B.V., priority 2004, published 2011).

Legend:
[1] = ONOOH scavenging (protection against ONOOH induced DHR-123 oxidation); format: biochemical; details: 50% inhibition of oxidation of DHR-123; 5 μM DHR-123, 0.7 μM ONOOH, pH 7.4, 37° C., n = 3; read-out: ONOO− scavenging activity, IC50 ± SEM
Procedure: The protection against ONOOH induced DHR-123 oxidation of the compounds was measured as described by Kooy et al (Peroxynitrite-mediated oxidation of dihydrorhodamine 123. Free Radic Biol Med, 16; 149-56). In short, 5 μM DHR-123 and various concentrations of a scavenger were incubated in 100 mM sodium phosphate buffer (pH 7.4) at 37° C. Subsequently, ONOOH was added by pipetting a 10 μl aliquot into the tube while rapid vortexing, reaching a final concentration of 0.7 μM. Fluorescence measurements were performed with excitation and emission wavelengths of respectively 500 and 536 nm. The effects are expressed as the concentration of the scavenger giving 50% inhibition of the oxidation of DHR-123 (IC50).

[2] = O2•- scavenging (xanthine/xanthine oxidase, NBT reduction); format: biochemical; details: 50% decrease in the reduction of NBT; xanthine 150 μM, XO 5.5 mU/ml, pH 7.8, 37° C., n = 3; read-out: O2•− scavenging activity, IC50 ± SEM
Procedure: O2•- were generated by the reaction of xanthine (150 μM) and xanthine oxidase (XO) (5.5 mU/ml) in 50 mM potassium phosphate buffer (pH 7.8). O2•-radicals were detected by nitroblue tetrazolium (NBT, 50 μM). NBT undergoes reduction by O2•- to its formazan. The rate of this reduction was monitored spectrophotometrically at 560 nm during 2 minutes. Various concentrations of a scavenger were added and incubated at 37° C. The reaction was started by the addition of XO. The O2•-scavenging potential is expressed as the concentration of the scavenger giving a 50% decrease in the reduction of NBT (IC50).
To adjust for a possible inhibitory effect of the scavenger on the activity of XO, the highest concentration of the scavenger was incubated at 37° C. and subsequently the rate of the urate formation was measured at 293 nm during 2 minutes.

diaphragm muscle strips = test: Organ bath experiments: force of diaphragm strips after H2O2 incubation; parameters: species or system Male Lewis rats; details: all applied stimulation frequencies, compared with control; FIG. 1
Description: Male Lewis rats (age between 12 and 14 weeks old) were used. After decapitation, the diaphragm was rapidly excised, and small strips (around 2 mm width and 1 cm long) were cut and subsequently mounted in thermostated organ baths, containing Krebs buffer gassed with a mixture of 95% O2 and 5% CO2, pH 7.4. Each diaphragm strip was connected vertically to an isometric transducer. The composition of the Krebs buffer was (mM): NaCl (117.5), KCl (5.6), MgSO4 (1.18), CaCl2 (2.5), NaHPO4 (1.28), NaHCO3 (25) and glucose (5.5). During the experiment, the buffer was changed every 15 minutes. Field stimulation was created along the entire length of each muscle strip with platinum electrodes. At the beginning of the experiment, the strips were washed during 45 minutes at room temperature to minimize temperature dependent deterioration. Thereafter, the water bath was turned on at 37° C. (15 minutes before the start of the experiments). […] First the Pt (twitch tension at a stimulation of 1 Hz) and Po (maximal specific tension at a stimulation of 100 Hz, 250 ms duration) were determined. Thereafter, the response of the diaphragm muscle strips to increasing stimulus frequencies was assessed at Lo by the application of 10, 20, 33, 50 and 100 Hz-pulses applied in 250 ms trains. […] After that were again determined: Pt, Po, force-frequency and fatigue.

IC50 [1]	IC50 [2]	Compound	effect on muscle force (diaphragm muscle strips)
> 200 µM	> 100 µM	O=C(O)CCCC[C@@H]1CCSS1 (racemic) [Lipoic acid, reference compound]	–
–	–	OO [H2O2, hydrogen peroxide]	dose-dependently reduces the force
99 ± 16 µM	> 200 µM	OCCc1ccc(O)cc1 [Tyrosol]	–
6.6 ± 0.2 µM	> 200 µM	COc1cc(CCO)ccc1O [Homovanillic alcohol]	–
